What all share (assay type): cell-based
Assay [1] deals with Colo205 colon cancer cells. Description: MTT proliferation (chemosensitivity) assay, Colo205.
The subject of assay [2] is SW620 colon cancer cells. Briefly: MTT proliferation (chemosensitivity) assay, SW620. The method, then:
(§1) MTT proliferation tests were performed as described. The proliferation control of both the untreated cells and the CHP pre-treated cells is set to 100%.
(§2) Unless otherwise indicated, all cell lines were obtained from the American Type Culture Collection (ATCC, Rockville, Md.) and grown to confluent monolayers in RPMI-1640 bicarbonate medium (Seromed, Berlin, Germany) in a humidified incubator (5% CO2, 37° C.). Cells were checked for mycoplasma contamination. The medium was supplemented with 10% heat-inactivated foetal bovine serum (Seromed) and 4 mM glutamine. The cells were subcultured by trypsination (0.03% trypsin containing 0.02% EDTA, three times a week). Cells numbers were counted using a TOA Sysmex microcellcounter (TOA, Tokyo, Japan).
(§3) 10^4 cells/well were distributed into 96-well microtitre plates (100 μl medium) and the compounds to be tested were added in another 100 μl volume. All compounds were diluted in triplicate or in most cases in quadruplicate. Plates were incubated under tissue culture conditions for 4 days, except those for tests investigating the relationship between application time and response, and cell viability was measured using a modified MTT assay (formazane dye formation from tetrazolium salts by mitochondrial reduction; EZ4U, Biomedica, Vienna, Austria), assessing mitochondrial activity and thereby cell viability/cell numbers. In brief, the supplied substrate was diluted in an activator solution and 20 μl of the mixture added per well for 2 hrs. The optical density was measured at 450 nm using an empty well as reference in a microplate reader (Eurogenetics, Brussels, Belgium). For each cell line, 8 wells were used to measure the MTT signal of the medium control without test substances and the proliferation in the test wells was calculated in relation to these control values set to 100%.
SW620chp4 and A431chp4 cells represent cells pre-treated with 400 μg/ml CHP for 5 days under tissue culture conditions.

For assay [3], the system named is A431 epidermoid carcinoma. Briefly: MTT proliferation (chemosensitivity) assay, A431. The conditions noted are these: A431 EGFR-overexpressing cell line. The method, then: as §1, §2
(§4) 10^4 cells/well were distributed into 96-well microtitre plates (100 μl medium) and the compounds to be tested were added in another 100 μl volume. All compounds were diluted in triplicate or in most cases in quadruplicate. Plates were incubated under tissue culture conditions for 4 days, except those for tests investigating the relationship between application time and response, and cell viability was measured using a modified MTT assay (formazane dye formation from tetrazolium salts by mitochondrial reduction; EZ4U, Biomedica, Vienna, Austria), assessing mitochondrial activity and thereby cell viability/cell numbers. […]

Assay [4] concerns HT29 colon cancer cells. Briefly: MTT proliferation (chemosensitivity) assay, HT29. The conditions noted are these: high concentrations of Cetuximab. On the procedure: as §1, §2, §4
Assay [5] relates to WI38 normal fibroblasts. Briefly: MTT proliferation (chemosensitivity) assay, WI38. The conditions noted are these: W138. On the procedure:
as §1, §2, §4

Assay [6] relates to DLD1 colon cancer cells. Briefly: MTT proliferation (chemosensitivity) assay, DLD1. Conditions: high concentrations of Cetuximab. On the procedure: as §1, §2, §4
The subject of assay [7] is MIAPaCa2 pancreatic cancer cell line. Briefly: MTT proliferation (chemosensitivity) assay, MIAPaCa2. The method, then: as §1, §2
as §3, with “100%. Test results were recorded between 0.3 and 1.5 optical densities for slowly and rapidly proliferating cells respectively.” for “100%.”
Experiments using pre-incubation with CHP were performed using more cell lines, namely BxPC3 and MIAPaCa2 pancreatic cancer cell lines. […]

Assay [8] has as its system colo250 colon cancer cell lines. Briefly: CHP with analytical EGFR-antibody, inhibition of proliferation. The conditions noted are these: read-out: Inhibition of the control in %. The method, then:
as §1, §2, §4

Assay [9] has as its system EGFR. Description: EGFR expression of A431 cells after CHP pre-incubation. The conditions noted are these: A431 cells pre-incubated with CHP.
[10] abbreviates: Homo sapiens, SW-620, read-out: proliferation activity (% of control).
Where [11] appears, read: Homo sapiens, read-out: proliferation activity (% of control).
[12] abbreviates: Homo sapiens, COLO 205, read-out: proliferation activity (% of control).

One may read the inhibition as how much of the control response was suppressed.

As for `CCOC(=O)[C@@H]1CC(O)CN1C` (stereo partly shown) [A1.21, 4-hydroxy-1-methyl-proline ethyl ester], in assay [1] (Colo 205 cells pre-incubated with the derivative 50 μg/ml for 5 days, then Cetuximab, Cetuximab concentrations not given), the “proliferation activity (% of control)” value was 94.5 ± 1.7%.

`O=C(O)[C@@H]1C[C@H](O)CN1` [CHP, Cis-4-hydroxy-L-proline]: the activity at 12.5 µg/mL in assay [2] (setting [10]) stood at 98.7 ± 3%; in [1] (setting [12]), 92.2 ± 1.4%. The activity at 25 µg/mL in assay [2] (setting [10]) amounted to 92.3 ± 0.9%; in assay [1] (setting [12]) it was 94.4 ± 6.2%. Besides, the activity at 50 µg/mL came to 91.9 ± 4.1% in assay [2] (setting [10]) and 84.2 ± 2.1% in [1] (setting [12]). Further, the activity at 200 µg/mL is 69.9 ± 2.6% in assay [2] (setting [10]) and 15.7 ± 1% in [1] (setting [12]). For the same compound, the values for the activity at 400 µg/mL in [2] (setting [10]) and in [1] (setting [12]) were 51.3 ± 3.7% and 9.9 ± 0.4%, respectively. Further, the activity at 100 µg/mL in [2] (setting [11]) was determined as 85.2 ± 0.7%; in [1] (setting [11]) it was 45.5 ± 3.2%. The “interaction with Cetuximab, direct combination” value in assay [2] (SW620 cells, low concentrations of CHP (6.3-50 μg/ml), Cetuximab 40 μg/ml) was “antagonistic”; in assay [1] (C205, CHP 400 μg/ml, at 5 and […] (printed as concentrations of CHP)), “antagonistic”; in [1] (C205, CHP 400 μg/ml, other concentrations), “no significant interaction”; in assay [1] (Colo205 cells, higher concentrations of CHP (50, 200 and 400 μg/ml), Cetuximab 40 μg/ml), “antagonistic”. In addition, in assay [3], the “interaction of CHP pre-incubation with Cetuximab” value is on record as “antagonistic interaction”. Also, the “interaction Avastatin-CHP pre-incubation” value was “Slightly synergistic effects” in [1] (Colo205, high concentrations of Avastatin) and “Slightly synergistic effects” in assay [7] (high concentrations of Avastatin). The “interaction with Cetuximab, sequential combination (CHP pre-treatment)” value in [4], in assay [5] and in assay [6] was “antagonistic effects” throughout. In addition, the “interaction CHP-Cetuximab, pre-incubation with CHP 200 μg/ml” value in assay [7] is “antagonistic interaction”. Further, in assay [7] (400 μg/ml CHP for 5 days), the “interaction with Rituximab, CHP pre-treatment” value is “synergy”. For the same compound, in assay [8] (CHP 200 μg/ml alone), the inhibition at 200 µg/mL amounted to 7.3 ± 8.1%. Moreover, in [8] (CHP100, CHP 100 μg/ml alone), the inhibition at 100 µg/mL is 2.9 ± 10.1%. Besides, in [9], the “expression of EGFR” value was “reduced expression of EGFR”.

The values above are taken from US7727530B2, “Anti-cancer composition comprising proline or its derivatives and an anti-tumour antibody” (priority 2004, dated 2010).
